Experiments:
naïve BALB/c mice = test: Intranasal cys-LT in naïve BALB/c mice, lung histology; type: in vivo, mouse; settings: 2 nmol, three successive days
Experimental: Thus, it was sought to determine whether either cys-LT amplified pulmonary […], BALB/c mice received inhalation challenges on three consecutive days with low-dose OVA (0.1%) for 30 minutes. Twelve hours before each challenge, the mice received intranasal LTD4, LTE4, or a buffer control. A cohort of mice treated with 1% OVA were maintained as a positive control. The mice were then euthanized, their BAL fluid collected, and their lungs examined histologically for evidence of inflammation and goblet cell metaplasia, a dominant pathologic signature of Th2-polarized mucosal inflammation. […] The extent of the cellularity and goblet cell responses of the LTE4-treated animals approached the levels of these parameters in the mice treated with 1% OVA.
(§1) 15 bronchovascular bundles of each mouse were evaluated.

BALB/c mice = test: Cys-LT amplification of pulmonary inflammation in OVA sensitized, low-dose OVA challenged BALB/c mice; type: in vivo, mouse; settings: intranasal cys-LT 12 h before each 0.1% OVA challenge
Experimental: FIG. 3. LTE4-mediated amplification of allergen-induced pulmonary inflammation. 3A. BAL fluid total cell counts (top) with percentages (middle) and total numbers (bottom) of eosinophils. Mice were sensitized twice with alum-precipitated ovalbumin (OVA). […] A separate sensitized group of mice were treated with 1% OVA as a positive control. 3B. Quantitative analysis if pulmonary inflammation, measured as the number of bronchovascular bundles with cellular infiltrates per 15 such bundles per mouse. 3C. Representative fields of H & E-stained lungs from mice from the indicated experimental groups. 3D. Morphometric analysis of goblet cell metaplasia, measured as the numbers of PAS-positive cells per mm of bronchial basal lamina. 3E. Representative PAS stains showing goblet cells (arrows). Results in 3A, 3B, and 3D are mean±SEM from 8-9 mice per group.
Thus, it was sought to determine whether either cys-LT amplified pulmonary inflammation induced by the inhalation of low-dose allergen in sensitized mice. Two weeks after sensitization with chicken egg ovalbumin (OVA) by intraperitoneal injection, BALB/c mice received inhalation challenges on three consecutive days with low-dose OVA (0.1%) for 30 minutes. Twelve hours before each challenge, the mice received intranasal LTD4, LTE4, or a buffer control. A cohort of mice treated with 1% OVA were maintained as a positive control. The mice were then euthanized, their BAL fluid collected, and their lungs examined histologically for evidence of inflammation and goblet cell metaplasia, a dominant pathologic signature of Th2-polarized mucosal inflammation. […] The extent of the cellularity and goblet cell responses of the LTE4-treated animals approached the levels of these parameters in the mice treated with 1% OVA.
Male BALB/c mice (6-8 weeks old) received intraperitoneal injections of reagent-grade chicken egg ovalbumin (OVA) (10 μg) precipitated with aluminum hydroxide ([…]) on days 0 and 7. […] Twelve hours after each dose, the mice were exposed to an aerosol of 0.1% OVA for 30 min delivered by an ultrasonic nebulizer. […] The mice were euthanized 24 hours after their third and final aerosol challenge. In some experiments, the mice received clopidogrel (500 μg/ml) in drinking water for 3 days before receiving the first intranasal dose of LTs. The treatment was continued throughout the procedure.
as §1

human P2Y12 = human P2Y12 (Homo sapiens, UniProt Q9H244); test: Binding of cys-LTs to membranes of CHO cells stably expressing the human P2Y12 receptor; set-up: polyhistidine (HIS) tag (C); expressed in transfected cells
Description: A P2Y12 receptor cDNA was amplified by reverse transcriptase polymerase chain reaction (RT-PCR) from RNA extracted from primary hMCs and cloned into a mammalian expression vector. Expression was confirmed by detection of a histidine (HIS) tag by flow cytometry. Another cohort of CHO cells were stably transfected with a P2Y12 receptor construct in reverse orientation as a negative control. […] The cys-LT-induced ERK activation blocked by pre-treatment of the cells with pertussis toxin (PTX), was attenuated by treatment with the P2Y12 receptor-selective antagonist 2-methylthioadenosine monophosphate (2-MesAMP) (FIG. 1C), and was resistant to MK571, an inhibitor that blocks CysLT1R and some P2Y receptors (Mamedova, L., et al. 2005. Biochem. Pharmacol. 71:115-125). […] These responses were resistant to PTX and 2-MesAMP, and susceptible to MK571 in the case of the CysLT1R transfectants.
A human P2Y12 receptor cDNA was amplified by 30 cycles of PCR from reverse-transcribed total RNA extracted from primary cord blood hMCs. The primer sequences were 5′-[…] (SEQ ID NO: 1) and 3′-[…] (SEQ ID NO: 2). The fragment was cloned into a TA vector (INVITROGEN™). After verifying the nucleotide sequence, the fragment was subcloned into the multiple cloning site of the expression vector pEF1/His B, encoding a C-terminal polyhistidine (HIS) tag. A plasmid expressing the P2Y12 receptor construct in the forward orientation were transfected into CHO cells using Fugene HD reagent according to manufacturer's protocol. A construct in the reverse sequence was transfected in parallel as a negative control. […]
[^3H] […] Protein concentration was determined using Biorad Protein Assay Kit. […] The residual membrane-associated [^3H] on the filter was determined in 2 ml scintillation fluid by beta counter (Perkin Elmer). For [^3H]ADP, specific binding was determined by subtracting the amount of [^3H] bound in the presence of 100 μM 2-MesADP from total binding.

Sequence of human P2Y12 (Q9H244 whole entry): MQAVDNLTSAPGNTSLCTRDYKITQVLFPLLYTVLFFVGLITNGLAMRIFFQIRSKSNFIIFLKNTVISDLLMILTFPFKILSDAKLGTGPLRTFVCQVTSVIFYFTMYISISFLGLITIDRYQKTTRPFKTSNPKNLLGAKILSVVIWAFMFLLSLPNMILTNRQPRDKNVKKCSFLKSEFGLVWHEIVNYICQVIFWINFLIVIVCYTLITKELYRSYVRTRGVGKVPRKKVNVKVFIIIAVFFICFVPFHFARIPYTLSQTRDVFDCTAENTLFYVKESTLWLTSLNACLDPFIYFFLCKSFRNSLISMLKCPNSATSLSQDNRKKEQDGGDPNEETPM

Kd (human P2Y12; membranes of P2Y12 CHO transfectants, read-out: affinity constant)	binding to membranes of the transfectants (human P2Y12)	Compound	lung histology (cellular influx, goblet cell metaplasia) (naïve BALB/c mice)	BAL fluid eosinophilia (BALB/c mice)	bronchovascular inflammation (BALB/c mice)	goblet cell metaplasia (BALB/c mice)
10 nM	–	CCCCC/C=C\C\C=C/C=C/C=C/[C@@H](SC[C@H](N)C(=O)O)[C@@H](O)CCCC(=O)O [LTE4]	no evidence of cellular influx or goblet cell metaplasia	significantly enhanced	significantly enhanced	significantly enhanced
–	also bound	CCCCC/C=C\C\C=C/C=C/C=C/[C@@H](SC[C@H](N)C(=O)NCC(=O)O)[C@@H](O)CCCC(=O)O [LTD4]	no evidence of cellular influx or goblet cell metaplasia	did not increase	tended to slightly potentiate	tended to slightly potentiate
